# Data reported in patent US9249131B2, “Modulators of ATP-binding cassette transporters” (Vertex Pharmaceuticals Incorporated, priority 2003, dated 2016).
# Target: T1, ΔF508-CFTR (Homo sapiens, UniProt P13569, DEL508-508)
# T1 construct: expressed in transfected cells; host or cells: NIH3T3 mouse fibroblasts stably expressing ΔF508-CFTR for the optical, whole-cell and single-channel assays; Fisher rat epithelial (FRT) cells for Ussing chamber follow-up
# Assay: Assays for ΔF508-CFTR correction and potentiator properties (membrane potential optical and electrophysiological methods)
# Assay type: cell-based
# Settings: CFTR modulation, % Efficacy
# Source text: Assays for Detecting and Measuring ΔF508-CFTR Correction and Potentiator Properties of Compounds
# A) Membrane Potential Optical Methods for Assaying ΔF508-CFTR Modulation Properties of Compounds
# The optical membrane potential assay utilized voltage-sensitive FRET sensors described by Gonzalez and Tsien (See, Gonzales, J. E. and R. Y. Tsien (1995) “Voltage sensing by fluorescence resonance energy transfer in single cells” Biophys J 69 (4): 1272-80, and Gonzalez, J. E. and R. Y. Tsien (1997) “Improved indicators of cell membrane potential that use fluorescence resonance energy transfer” Chem Biol 4 (4): 269-77) in combination with instrumentation for measuring fluorescence changes such as the Voltage/Ion Probe Reader (VIPR) (See, Gonzalez, J. E., K. Oades, et al. (1999) “Cell-based assays and instrumentation for screening ion-channel targets” Drug Discov Today 4 (9): 431-439).
# These voltage sensitive assays are based on the change in fluorescence resonant energy transfer (FRET) between the membrane-soluble, voltage-sensitive dye, DiSBAC2 (3), and a fluorescent phospholipid, CC2-DMPE, which is attached to the outer leaflet of the plasma membrane and acts as a FRET donor. Changes in membrane potential (Vm) cause the negatively charged DiSBAC2(3) to redistribute across the plasma membrane and the amount of energy transfer from CC2-DMPE changes accordingly. The changes in fluorescence emission were monitored using VIPR™ II, which is an integrated liquid handler and fluorescent detector designed to conduct cell-based screens in 96- or 384-well microtiter plates.
# To identify small molecules that correct the trafficking defect associated with ΔF508-CFTR; a single-addition HTS assay format was developed. The cells were incubated in serum-free medium for 16 hrs at 37° C. in the presence or absence (negative control) of test compound. As a positive control, cells plated in 384-well plates were incubated for 16 hrs at 27° C. to “temperature-correct” ΔF508-CFTR. The cells were subsequently rinsed 3× with Krebs Ringers solution and loaded with the voltage-sensitive dyes. To activate ΔF508-CFTR, […] and the CFTR potentiator, genistein ([…]), were added along with Cl^−-free medium to each well. The addition of Cl^−-free medium promoted Cl^− efflux in response to ΔF508-CFTR activation and the resulting membrane depolarization was optically monitored using the FRET-based voltage-sensor dyes.
# To identify potentiators of ΔF508-CFTR, a double-addition HTS assay format was developed. During the first addition, a Cl^−-free medium with or without test compound was added to each well. After 22 sec, a second addition of Cl^−-free medium containing 2-10 µM forskolin was added to activate ΔF508-CFTR. The extracellular Cl^− concentration following both additions was 28 mM, which promoted Cl^− efflux in response to ΔF508-CFTR activation and the resulting membrane depolarization was optically monitored using the FRET-based voltage-sensor dyes.
# • Bath Solution #1: (in mM) NaCl 160, KCl 4.5, CaCl2 2, MgCl2 1, HEPES 10, pH 7.4 with NaOH. • Chloride-free bath solution: Chloride salts in Bath Solution #1 are substituted with gluconate salts. • CC2-DMPE: Prepared as a 10 mM stock solution in DMSO and stored at −20° C. • DiSBAC2(3): Prepared as a 10 mM stock in DMSO and stored at −20° C. Cell Culture
# NIH3T3 mouse fibroblasts stably expressing ΔF508-CFTR are used for optical measurements of membrane potential. The cells are maintained at 37° C. in 5% CO2 and 90% humidity in Dulbecco's modified Eagle's medium supplemented with 2 mM glutamine, 10% fetal bovine serum, 1×NEAA, β-ME, 1×pen/strep, and 25 mM HEPES in 175 cm^2 culture flasks. For all optical assays, the cells were seeded at 30,000/well in 384-well matrigel-coated plates and cultured for 2 hrs at 37° C. before culturing at 27° C. for 24 hrs. for the potentiator assay. For the correction assays, the cells are cultured at 27° C. or 37° C. with and without compounds for 16-24 hours.
# T1 sequence (P13569 with tags, fused parts or gaps DEL508-508): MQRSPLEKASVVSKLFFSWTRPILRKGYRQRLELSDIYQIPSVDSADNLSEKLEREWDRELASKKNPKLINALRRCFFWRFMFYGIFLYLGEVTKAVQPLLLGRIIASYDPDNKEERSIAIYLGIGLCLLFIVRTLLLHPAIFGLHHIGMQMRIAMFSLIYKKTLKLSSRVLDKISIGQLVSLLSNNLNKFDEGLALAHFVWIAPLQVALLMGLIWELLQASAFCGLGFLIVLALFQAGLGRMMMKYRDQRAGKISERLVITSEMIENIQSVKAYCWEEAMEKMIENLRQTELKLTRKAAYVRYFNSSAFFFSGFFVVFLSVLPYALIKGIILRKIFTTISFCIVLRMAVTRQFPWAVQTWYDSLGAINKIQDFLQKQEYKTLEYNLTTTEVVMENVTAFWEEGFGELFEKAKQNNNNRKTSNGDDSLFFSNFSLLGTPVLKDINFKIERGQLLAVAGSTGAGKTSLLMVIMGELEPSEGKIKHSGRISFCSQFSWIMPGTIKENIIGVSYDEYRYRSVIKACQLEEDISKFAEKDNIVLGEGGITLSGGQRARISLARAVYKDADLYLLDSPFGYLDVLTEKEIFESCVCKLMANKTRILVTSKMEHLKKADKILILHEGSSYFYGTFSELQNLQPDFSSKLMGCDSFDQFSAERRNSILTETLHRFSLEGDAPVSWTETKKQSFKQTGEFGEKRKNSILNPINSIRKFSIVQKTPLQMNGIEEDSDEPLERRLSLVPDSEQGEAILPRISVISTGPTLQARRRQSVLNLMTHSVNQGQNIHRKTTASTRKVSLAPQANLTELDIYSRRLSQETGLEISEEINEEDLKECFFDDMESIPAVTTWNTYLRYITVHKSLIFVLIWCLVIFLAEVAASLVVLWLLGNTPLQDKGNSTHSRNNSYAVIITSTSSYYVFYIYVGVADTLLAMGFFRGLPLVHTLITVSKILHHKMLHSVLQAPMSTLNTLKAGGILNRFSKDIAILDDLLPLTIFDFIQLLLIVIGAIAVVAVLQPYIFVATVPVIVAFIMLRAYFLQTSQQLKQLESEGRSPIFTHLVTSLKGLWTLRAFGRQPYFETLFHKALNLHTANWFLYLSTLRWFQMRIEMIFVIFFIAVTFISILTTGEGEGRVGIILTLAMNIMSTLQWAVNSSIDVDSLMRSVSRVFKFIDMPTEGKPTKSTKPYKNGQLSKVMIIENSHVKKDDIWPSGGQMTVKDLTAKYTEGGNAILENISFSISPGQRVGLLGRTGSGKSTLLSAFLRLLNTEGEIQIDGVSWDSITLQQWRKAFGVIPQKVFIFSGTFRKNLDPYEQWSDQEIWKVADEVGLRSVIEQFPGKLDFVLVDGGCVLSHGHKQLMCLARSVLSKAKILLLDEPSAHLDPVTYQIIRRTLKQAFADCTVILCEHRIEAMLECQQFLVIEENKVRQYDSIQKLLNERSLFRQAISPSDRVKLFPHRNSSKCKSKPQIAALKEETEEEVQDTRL
row,SMILES,% Activity
1,CCC(=O)Nc1nc(-c2ccccc2)c(-c2ccccc2)s1 [compound 50],+++ (“+++” means >100%)
2,COc1ccccc1C(=O)Nc1nc(-c2ccccc2)c(-c2ccccc2)s1 [compound 51],+++ (“+++” means >100%)
3,Cc1ccc(C(=O)Nc2nc(-c3ccccc3)c(-c3ccccc3)s2)cc1 [compound 52],+++ (“+++” means >100%)
4,O=C(Nc1nc(-c2ccccc2)cs1)c1cccc(Cl)c1 [compound 53],+++ (“+++” means >100%)
5,Cc1cccc(Cc2cnc(NC(=O)c3ccccc3Cl)s2)c1 [compound 54],++ (“++” means between 25% to 100%)
6,O=C(Nc1nc(-c2ccccc2)cs1)C1CCCCC1 [compound 55],++ (“++” means between 25% to 100%)
7,O=C(Nc1ncc(Cc2cccc(Cl)c2Cl)s1)C(c1ccccc1)c1ccccc1 [compound 56],++ (“++” means between 25% to 100%)
8,O=C(Nc1ncc(Cc2cc(Cl)ccc2Cl)s1)C(c1ccccc1)c1ccccc1 [compound 57],++ (“++” means between 25% to 100%)
9,CCC(C(=O)Nc1nc(-c2ccncc2)cs1)c1ccccc1 (stereo not shown) [compound 58],++ (“++” means between 25% to 100%)
10,O=C(O)c1ccccc1C(=O)Nc1nc(-c2ccccc2)c(-c2ccccc2)s1 [compound 59],++ (“++” means between 25% to 100%)

# Next, values leading:
row,% Activity,SMILES
1,++ (“++” means between 25% to 100%),CC(CC(=O)O)CC(=O)Nc1nc(-c2ccccc2)c(-c2ccccc2)s1 (stereo not shown) [compound 60]
2,++ (“++” means between 25% to 100%),O=C(O)CCCC(=O)Nc1nc(-c2ccccc2)c(-c2ccccc2)s1 [compound 61]
3,+++ (“+++” means >100%),O=C(Nc1nc(-c2ccccc2)c(-c2ccccc2)s1)c1c(F)cccc1F [compound 62]
4,+++ (“+++” means >100%),CCc1ccccc1OCC(=O)Nc1nc2ccccc2s1 [compound 63]
5,+++ (“+++” means >100%),Cc1nc(NC(=O)COc2ccccc2C(C)C)sc1C [compound 64]
6,++ (“++” means between 25% to 100%),O=C(CN1CCCCC1)Nc1ncc(Cc2cccc3ccccc23)s1 [compound 65]
7,++ (“++” means between 25% to 100%),Cc1ccc(C(=O)Nc2nc(C)c(C)s2)cc1 [compound 66]
8,++ (“++” means between 25% to 100%),Cc1ccc(C(=O)Nc2nc(-c3ccccc3)cs2)cc1 [compound 67]
9,++ (“++” means between 25% to 100%),O=C(Nc1nc(-c2ccccc2)c(-c2ccccc2)s1)c1ccccc1 [compound 68]
10,+++ (“+++” means >100%),COc1ccccc1-c1csc(NC(=O)c2ccccc2)n1 [compound 69]
11,+++ (“+++” means >100%),Cc1cccc(C(=O)Nc2nc(-c3ccccc3)c(-c3ccccc3)s2)c1 [compound 70]
12,++ (“++” means between 25% to 100%),Cc1ccccc1C(=O)Nc1nc(-c2ccccc2)c(-c2ccccc2)s1 [compound 71]
13,+++ (“+++” means >100%),COc1ccc(C(=O)Nc2nc(-c3ccccc3)c(-c3ccccc3)s2)cc1 [compound 72]

# Same assay, conditions: CFTR modulation, tested using the above methods
row,SMILES,EC50 [µM]
1,CCC(=O)Nc1nc(-c2ccccc2)c(-c2ccccc2)s1 [compound 50],< 10
2,COc1ccccc1C(=O)Nc1nc(-c2ccccc2)c(-c2ccccc2)s1 [compound 51],< 10
3,Cc1ccc(C(=O)Nc2nc(-c3ccccc3)c(-c3ccccc3)s2)cc1 [compound 52],< 10
4,O=C(Nc1nc(-c2ccccc2)cs1)c1cccc(Cl)c1 [compound 53],< 10
5,Cc1cccc(Cc2cnc(NC(=O)c3ccccc3Cl)s2)c1 [compound 54],10 to 25
6,O=C(Nc1nc(-c2ccccc2)cs1)C1CCCCC1 [compound 55],10 to 25
7,O=C(Nc1ncc(Cc2cccc(Cl)c2Cl)s1)C(c1ccccc1)c1ccccc1 [compound 56],< 10
8,O=C(Nc1ncc(Cc2cc(Cl)ccc2Cl)s1)C(c1ccccc1)c1ccccc1 [compound 57],< 10
9,CCC(C(=O)Nc1nc(-c2ccncc2)cs1)c1ccccc1 (stereo not shown) [compound 58],10 to 25
10,O=C(O)c1ccccc1C(=O)Nc1nc(-c2ccccc2)c(-c2ccccc2)s1 [compound 59],10 to 25

# The next lines start with the values.
row,EC50 [µM],SMILES
1,10 to 25,CC(CC(=O)O)CC(=O)Nc1nc(-c2ccccc2)c(-c2ccccc2)s1 (stereo not shown) [compound 60]
2,10 to 25,O=C(O)CCCC(=O)Nc1nc(-c2ccccc2)c(-c2ccccc2)s1 [compound 61]
3,< 10,O=C(Nc1nc(-c2ccccc2)c(-c2ccccc2)s1)c1c(F)cccc1F [compound 62]
4,10 to 25,CCc1ccccc1OCC(=O)Nc1nc2ccccc2s1 [compound 63]
5,< 10,Cc1nc(NC(=O)COc2ccccc2C(C)C)sc1C [compound 64]
6,10 to 25,O=C(CN1CCCCC1)Nc1ncc(Cc2cccc3ccccc23)s1 [compound 65]
7,10 to 25,Cc1ccc(C(=O)Nc2nc(C)c(C)s2)cc1 [compound 66]
8,10 to 25,Cc1ccc(C(=O)Nc2nc(-c3ccccc3)cs2)cc1 [compound 67]
9,< 10,O=C(Nc1nc(-c2ccccc2)c(-c2ccccc2)s1)c1ccccc1 [compound 68]
10,10 to 25,COc1ccccc1-c1csc(NC(=O)c2ccccc2)n1 [compound 69]
11,< 10,Cc1cccc(C(=O)Nc2nc(-c3ccccc3)c(-c3ccccc3)s2)c1 [compound 70]
12,< 10,Cc1ccccc1C(=O)Nc1nc(-c2ccccc2)c(-c2ccccc2)s1 [compound 71]
13,< 10,COc1ccc(C(=O)Nc2nc(-c3ccccc3)c(-c3ccccc3)s2)cc1 [compound 72]
